Assay results as given in ChEMBL document CHEMBL5154828 (J Med Chem, 2022).
Active and inactive are the calls of the source. The rule behind the calls is not given here.

Experiments:
Estrogen receptor [1] = target: Estrogen receptor (Homo sapiens, UniProt P03372, Y537S); test: Antagonist activity at ERalpha Y537S mutant degradation in human SK-BR-3 cells incubated for 24 hrs in presence of beta-estradiol by luciferase gene assay; assay type: cell-based
[2] = AUC (0 to t) in Sprague-Dawley rat at 10 mg/kg, po measured up to 24 hrs by LC/MS/MS analysis; assay type: ADME, organism-based; design: time < 24 hrs, dose 10 mg/kg, route po; conditions: in vivo
Estrogen receptor [3] = target: T1, Estrogen receptor (Homo sapiens, UniProt P03372); test: Induction of ERalpha degradation in human MCF7 cells incubated for 24 hrs by Western blot analysis; assay type: cell-based
T1 sequence (P03372 whole entry): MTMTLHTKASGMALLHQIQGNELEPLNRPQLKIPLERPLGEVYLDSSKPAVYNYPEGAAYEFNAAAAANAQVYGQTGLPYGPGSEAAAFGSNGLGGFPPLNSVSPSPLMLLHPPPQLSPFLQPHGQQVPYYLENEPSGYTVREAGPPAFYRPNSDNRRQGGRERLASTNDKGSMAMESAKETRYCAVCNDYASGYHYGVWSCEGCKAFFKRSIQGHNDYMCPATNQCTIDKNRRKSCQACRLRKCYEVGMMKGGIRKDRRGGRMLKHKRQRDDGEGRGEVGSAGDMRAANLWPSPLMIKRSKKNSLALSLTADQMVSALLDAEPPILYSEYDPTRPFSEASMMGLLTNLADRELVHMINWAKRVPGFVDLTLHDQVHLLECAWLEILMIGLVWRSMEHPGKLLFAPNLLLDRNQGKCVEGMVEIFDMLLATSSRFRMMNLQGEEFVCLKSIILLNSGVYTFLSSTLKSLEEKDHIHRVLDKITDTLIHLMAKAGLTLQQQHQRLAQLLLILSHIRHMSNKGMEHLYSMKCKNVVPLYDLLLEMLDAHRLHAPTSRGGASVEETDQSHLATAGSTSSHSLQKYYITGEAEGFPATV

Estrogen receptor [4] = target: Estrogen receptor (Homo sapiens, UniProt P03372, D538G); test: Antagonist activity at ERalpha D538G mutant degradation in human SK-BR-3 cells incubated for 24 hrs in presence of beta-estradiol by luciferase gene assay; assay type: cell-based
[5] = Cmax in Sprague-Dawley rat at 10 mg/kg, po measured up to 24 hrs by LC/MS/MS analysis; assay type: ADME, organism-based; design: time < 24 hrs, dose 10 mg/kg, route po; conditions: in vivo
Estrogen receptor [6] = target: T1, Estrogen receptor; test: Antagonist activity at ERalpha expressed in HEK293/Gal4 cells incubated for 24 hrs in presence of estradiol by luciferase reporter gene assay; assay type: cell-based
[7] = target: Voltage-gated inwardly rectifying potassium channel KCNH2 (Homo sapiens, UniProt Q12809); test: Inhibition of human ERG potassium channel expressed in CHO cells by patch-clamp assay; assay type: toxicity, cell-based
MCF7 [8] = test: Antiproliferative activity against human MCF7 cells assessed as inhibition of cell growth measured after 6 days by cell titre glo luminescence assay; conditions: MCF7, 144 h
MCF7 [9] = test: Anti-hyperplasia activity in […] Sprague-Dawley rat assessed as appearance of tall columnar phenotype in epithelial cells at 60 mg/kg, po once daily for 3 days by hematoxylin and eosin staining based assay; assay type: functional, organism-based; conditions: time 3.0 day
[10] = Cmax in Sprague-Dawley rat at 5 mg/kg, po measured up to 24 hrs by LC/MS/MS analysis; assay type: ADME, organism-based; design: time < 24 hrs, dose 5 mg/kg, route po; conditions: in vivo
[11] = AUC (0 to t) in Sprague-Dawley rat at 5 mg/kg, po measured up to 24 hrs by LC/MS/MS analysis; assay type: ADME, organism-based; design: time < 24 hrs, dose 5 mg/kg, route po; conditions: in vivo
Estrogen receptor beta = Estrogen receptor beta (Homo sapiens, UniProt Q92731); test: Antagonist activity at ERbeta expressed in HEK293/Gal4 cells incubated for 24 hrs in presence of di-arylpropionitrile by luciferase reporter gene assay
Sequence of Estrogen receptor beta (Q92731 whole entry, the tested form may be a part): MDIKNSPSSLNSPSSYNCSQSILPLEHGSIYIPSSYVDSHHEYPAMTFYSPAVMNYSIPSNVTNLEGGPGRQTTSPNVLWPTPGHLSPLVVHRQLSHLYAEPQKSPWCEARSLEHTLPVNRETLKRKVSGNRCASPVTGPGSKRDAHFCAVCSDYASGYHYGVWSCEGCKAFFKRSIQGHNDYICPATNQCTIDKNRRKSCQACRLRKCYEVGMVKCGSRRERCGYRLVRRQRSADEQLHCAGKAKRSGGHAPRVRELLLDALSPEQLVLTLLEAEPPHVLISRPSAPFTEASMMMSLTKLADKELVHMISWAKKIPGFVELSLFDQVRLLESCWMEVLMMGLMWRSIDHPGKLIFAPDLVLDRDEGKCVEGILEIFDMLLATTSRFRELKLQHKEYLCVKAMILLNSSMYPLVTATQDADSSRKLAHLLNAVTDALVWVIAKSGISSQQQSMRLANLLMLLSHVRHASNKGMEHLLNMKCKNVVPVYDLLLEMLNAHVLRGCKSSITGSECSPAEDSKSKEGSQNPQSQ

Sequence of Voltage-gated inwardly rectifying potassium channel KCNH2 (Q12809 whole entry): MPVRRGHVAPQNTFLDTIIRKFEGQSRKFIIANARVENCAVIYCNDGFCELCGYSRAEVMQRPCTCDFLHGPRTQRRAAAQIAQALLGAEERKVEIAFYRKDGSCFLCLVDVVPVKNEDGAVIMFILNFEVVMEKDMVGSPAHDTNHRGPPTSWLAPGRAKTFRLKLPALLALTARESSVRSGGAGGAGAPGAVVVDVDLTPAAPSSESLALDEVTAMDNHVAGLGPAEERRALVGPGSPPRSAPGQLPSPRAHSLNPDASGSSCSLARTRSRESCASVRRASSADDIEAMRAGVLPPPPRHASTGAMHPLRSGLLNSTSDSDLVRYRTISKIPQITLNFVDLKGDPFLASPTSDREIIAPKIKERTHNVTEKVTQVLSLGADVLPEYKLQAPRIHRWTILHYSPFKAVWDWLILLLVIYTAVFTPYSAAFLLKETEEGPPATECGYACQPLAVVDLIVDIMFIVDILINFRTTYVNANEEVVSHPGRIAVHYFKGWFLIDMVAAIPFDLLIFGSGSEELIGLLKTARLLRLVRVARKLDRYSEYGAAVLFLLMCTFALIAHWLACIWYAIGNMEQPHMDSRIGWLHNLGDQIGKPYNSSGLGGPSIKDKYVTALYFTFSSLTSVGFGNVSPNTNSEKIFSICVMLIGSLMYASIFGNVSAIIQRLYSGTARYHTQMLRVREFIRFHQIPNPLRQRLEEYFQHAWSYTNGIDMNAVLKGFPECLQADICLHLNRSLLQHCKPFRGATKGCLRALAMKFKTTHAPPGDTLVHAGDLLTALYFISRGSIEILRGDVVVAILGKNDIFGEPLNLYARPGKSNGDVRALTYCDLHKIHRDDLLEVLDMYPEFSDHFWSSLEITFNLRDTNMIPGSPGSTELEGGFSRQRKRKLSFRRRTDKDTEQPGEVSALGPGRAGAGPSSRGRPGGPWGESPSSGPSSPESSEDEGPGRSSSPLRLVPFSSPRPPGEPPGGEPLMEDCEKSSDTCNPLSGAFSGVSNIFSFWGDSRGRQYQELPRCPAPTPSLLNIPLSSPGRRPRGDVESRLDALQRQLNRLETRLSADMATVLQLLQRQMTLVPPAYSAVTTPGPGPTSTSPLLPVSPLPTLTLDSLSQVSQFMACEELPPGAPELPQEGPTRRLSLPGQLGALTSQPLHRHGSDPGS
Sequence of Estrogen receptor (Homo sapiens, UniProt P03372, Y537S) (P03372 whole entry Y537S): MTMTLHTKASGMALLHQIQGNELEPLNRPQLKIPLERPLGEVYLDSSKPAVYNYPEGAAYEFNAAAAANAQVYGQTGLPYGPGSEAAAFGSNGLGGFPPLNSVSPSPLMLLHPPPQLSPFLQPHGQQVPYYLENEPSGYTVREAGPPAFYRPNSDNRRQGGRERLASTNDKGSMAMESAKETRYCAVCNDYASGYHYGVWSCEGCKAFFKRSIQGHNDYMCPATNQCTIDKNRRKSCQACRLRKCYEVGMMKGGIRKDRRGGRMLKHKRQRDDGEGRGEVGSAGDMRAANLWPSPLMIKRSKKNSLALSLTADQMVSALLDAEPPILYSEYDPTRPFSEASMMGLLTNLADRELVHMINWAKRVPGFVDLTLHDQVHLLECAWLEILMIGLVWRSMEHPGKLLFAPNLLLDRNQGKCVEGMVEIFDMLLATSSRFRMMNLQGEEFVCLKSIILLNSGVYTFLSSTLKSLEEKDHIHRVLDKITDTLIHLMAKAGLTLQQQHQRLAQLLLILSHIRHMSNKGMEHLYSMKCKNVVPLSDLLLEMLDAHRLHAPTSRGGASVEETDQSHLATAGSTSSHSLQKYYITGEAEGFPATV
Sequence of Estrogen receptor (Homo sapiens, UniProt P03372, D538G) (P03372 whole entry D538G): as the sequence (P03372 whole entry Y537S) above, with S537Y, D538G counted along it

| Structure (SMILES) | AUC(0-t) at 24 h [2] [ng·h/mL] | EC50 (Estrogen receptor [3]) [nM] | Cmax [5] [ng/mL] | IC50 (Estrogen receptor [6]) [nM] | IC50 [7] [nM] | IC50 (MCF7 [8]) [nM] | also measured |
| --- | --- | --- | --- | --- | --- | --- | --- |
| CC(F)(F)c1cc(Cl)ccc1-c1sc2c(ccc3[nH]ncc32)c1Oc1ccc(NC2CN(CCCF)C2)cc1 | 3090 | 1.2 | 228 | – | – | – | IC50 (Estrogen receptor [1]): 13.1 nM; IC50 (Estrogen receptor [4]): 16.6 nM |
| CC(F)(F)c1cc(F)c(F)cc1-c1sc2c(ccc3[nH]ncc32)c1Oc1ccc(OC2CN(CCCF)C2)c(F)c1 | 1280 | 3.9 | 132 | 5.3 | > 40000 | 2.8 | – |
| CC/C(=C(\c1ccc(O)cc1)c1ccc(OCCN(C)C)cc1)c1ccccc1 | – | – | – | – | – | – | Activity (MCF7 [9]): Active |
| CC(F)(F)c1cc(F)ccc1-c1sc2c(ccc3[nH]ncc32)c1Oc1ccc(NC2CN(CCCF)C2)c(F)c1 | – | 1.3 | – | 1.1 | 27500 | 0.8 | – |
| CC(F)(F)c1cc(-c2sc3cc(O)ccc3c2Oc2ccc(/C=C/C(=O)O)cc2)ccc1F | – | – | – | – | – | – | Cmax [10]: 283 ng/mL; AUC(0-t) at 24 h [11]: 585 ng·h/mL |
| COc1cc(Oc2c(-c3ccc(F)cc3C(C)(C)F)sc3c2ccc2[nH]ncc23)ccc1OC1CN(CCCF)C1 | 264 | 1.4 | 47 | 0.8 | > 40000 | 0.5 | – |
| O=C(O)c1ccc2c(c1)CCCC(c1ccc(Cl)cc1Cl)=C2c1ccc(O[C@H]2CCN(CCCF)C2)cc1 [AMCENESTRANT] | – | – | – | – | – | 9.1 | IC50 (Estrogen receptor beta): 8.6 nM |
| COc1cc(Oc2c(-c3cc(F)c(F)cc3C(C)(F)F)sc3c2ccc2[nH]ncc23)ccc1NC1CN(CCCF)C1 | – | 2.6 | – | 2.5 | 15600 | 1.7 | – |
